According to patent US6302119A, “Low odor permanent waving compositions containing a disulfide” (priority 1999, dated 2001):
Entries after “also recorded” stand apart in the source; their conditions may differ.

Legend:
[1] = cited from earlier work; for odor: permanent wave; for waving performance: compared to TGA where stated
[2] = thiol; cited from earlier work
[3] = in vivo; cited from earlier work
[4] = gas chromatography; waving compositions; cited from earlier work
[5] = Odor evaluation by 3-4 panelists of activator, waving composition and hair tresses; details: for Odor rating of waving composition (with activator): GMT alone 3.6; for Odor of hair rating: GMT alone 2.8; for Odor rating of activator (GMT + additive): GMT alone 3.8; for odor effect: additive in GMT, concentration not specified
Description: The disulfide or thiol additive was added in the concentration indicated in Tables 3 and 4, to 200 g of neat glyceryl monothioglycolate (GMr) in a 250 mL beaker.
Odor evaluation was conducted by 3-4 panelists who rated the odors on a scale of 1-5 where 1=no malodor and 5=extreme malodor. […] To this solution was added two tresses of dark brown, virgin hair (1 inch wide, 6 inches long), that had been washed with a 10% solution of SLS and soaked in synthetic sweate^8 at 37° C. for 17 hr, then lightly rinsed. The beaker containing the GMT activator was covered with foil and was allowed to sit for 5 to 10 minutes prior to odor evaluation. The tresses were then allowed to process in the wave composition for 20 minutes at room temperature in a covered beaker. The tresses were rinsed with tap water, towel blotted, then added to 80 mL of Matrix Opticurl Rebonding Neutralizer and processed for 5 minutes. After rinsing, the damp hair was evaluated for odor.
8. Recipe for synthetic sweat: 10 g sodium chloride, 1 g potassium hydrogen phosphate, 0.25 g histidine, lactic acid to adjust pH to 3.2 and water to make 1 L.

[6] = 0.005 wt % in GMT, scale 1-5, 1 = no malodor
[7] = 0.005 wt % in GMT, scale 1-5, 1 = no malodor, damp hair after neutralizer
[8] = 0.005 wt % in GMT, scale 1 = no malodor, 5 = extreme malodor, average of 3-4 panelists
[9] = 0.01 wt % in GMT, scale 1-5, 1 = no malodor
[10] = 0.1 wt % in GMT, scale 1-5, 1 = no malodor

SMILES: NCCS [Cysteamine]
- odor [1]: likened to burnt popcorn or corn chips
- pKa [2]: 8.6

SMILES: O=C(CS)OCC(O)CO (centres unmarked) [GMT, Glyceryl monothioglycolate]
- odor [1]: more pronounced from GMT (glyceryl monothioglycolate) acid waves, than from ATG (ammonium thioglycolate) alkaline waves
- pKa [2]: 7.8
- skin irritation [3]: causes skin irritation in some people

SMILES: CC(S)C(=O)O (centres unmarked) [Thiolactic acid]
- waving performance [1]: less efficient than TGA
- toxicology / mildness [3]: milder on the epidermis

SMILES: O=C(O)CS [ammonium thioglycolate]
- hydrogen sulfide in headspace [4]: ppm levels

SMILES: N[C@@H](CS)C(=O)O [cysteine]
- waving performance [1]: produces weaker curls than TGA
- skin irritation [3]: is an irritant

SMILES: CC(C)CCCCCOC(=O)CSSCC(=O)OCCCCCC(C)C [di-i-octyldithiodiglycolate]
- odor reduction ([5]; 0.005%): removed the sulfur odor from GMT without adding the petroleum odor of the disulfide; also recorded: better than those were from the i-octylthioglycolate; also recorded: the waving composition and the hair smell more neutral, and less chemical than the other solutions; also recorded: essentially no odor left on the hair
- panelist preference vs GMT alone, formulation odor and post-perm hair odor ([5]; 0.005% in GMT, duplicate experiments): all panelists preferred the GMT containing 0.005% disulfide compared to GMT alone
- Odor rating of waving composition (with activator) [5, 6]: 2.1
- Odor of hair rating [5, 7]: 1.1
- Odor rating of activator (GMT + additive) [5, 8]: 2.2
- odor reduction / odor detected ([5]; 0.01%): comparable odor results; also recorded: petroleum-like sulfur smell of the disulfide itself
- Odor of hair rating [5, 9]: 1.8
- Odor rating of waving composition (with activator) [5, 9]: 3.0
- Odor rating of activator (GMT + additive) [5, 9]: 2.5
- Odor of hair rating [5, 10]: 2.8
- Odor rating of waving composition (with activator) [5, 10]: 2.3
- Odor rating of activator (GMT + additive) [5, 10]: 2.5
- odor effect [5]: reduces the thiol odor associated with a GMT wave in all three categories evaluated

SMILES: CCCCOC(=O)CSSCC(=O)OCCCC [di-n-butyldithiodiglycolate]
- Odor rating of waving composition (with activator) [5, 6]: 2.0
- Odor of hair rating [5, 7]: 3.5
- Odor rating of activator (GMT + additive) [5, 8]: 2.0
- Odor of hair rating [5, 9]: 4
- Odor rating of waving composition (with activator) [5, 9]: 3.8
- Odor rating of activator (GMT + additive) [5, 9]: 2.8
- odor effect ([5]; listed as Di-butyldithiodiglycolate): effectively lowers odor in the activator and in the waving composition
- odor effect ([5]; listed as dibutyldithioglycolate): less of an odor reducing effect compared to di-i-octyldithiodiglycolate
- post-perm odor on hair ([5]; vs original GMT odor): leave a sulfur malodor on the hair that is more disagreeable than the original GMT odor

SMILES: CCCCCCCSSCCCCCCC [di-n-heptyldisulfide, di-n-heptyl disulfide]
- Odor rating of waving composition (with activator) [5, 6]: 5
- Odor rating of activator (GMT + additive) [5, 8]: 5
- Odor rating of waving composition (with activator) [5, 9]: 5
- Odor rating of activator (GMT + additive) [5, 9]: 5
- odor effect [5]: increased malodor compared to non-disulfide containing formulations
- odor effect ([5]; listed as diheptyldisulfide): produces an odor itself that is more disagreeable than the GMT odor alone

SMILES: O=C(O)CS [thioglycolic acid]
- waving performance [1]: good performance
- odor [1]: unpleasant odor
- toxicology / mildness [3]: good toxicology
